Test results as given in US7785846B2, “Method for the production of methionine” (Evonik Degussa GmbH, priority 2003, dated 2010).
Converted amounts (≈) assume the structure as drawn.

Key:
[1] = under these conditions (20° C. and 70° C.), compared with water
physchem = conditions: water

- solubility in the fermentation broth [1]: comparable order of magnitude
- solubility (physchem; 20 °C): ~30 mg/mL (≈ 201 mM)
- solubility (physchem; 70 °C): > 90 mg/mL
Structure (SMILES): CSCC[C@H](N)C(=O)O [methionine]
